What was measured:
Set-up in all cases: species or system mice
[1] = In vivo antitumor assay, LC12(sc); details: mouse, in vivo, drug iv, qd 3,5, exp 1161, MTD not achieved, maximum dose tested
Description: (§1) Mice: Inbred: C3H/He and NCR-nu; and Hybrids: B6D2F1 (C57BL/6 females×DBA/2 males, CD2F1 (Balb/c females×DBS/2 males) and B6C3fl (C57BL/6×C3H) were bred at Wayne State University from strains obtained from the Frederick Cancer Research Facility, Frederick, Maryland or purchased from commercial suppliers.
(§2) Tumors: Murine Tumor: P388 and an adriamycin-resistant (ADR) subline P388/ADR leukemia and the following transplantable solid tumors of mice were used for in vivo testing: B16 melanoma (B16), pancreatic ductal adenocarcinoma No. 03 (Pane 03), colon adenocarcinoma No. 38 (colo 38), lung carcinoma No. 12 (LC 12), mammary ductal adenocarcinoma No. 16/C (Mam16C) and an adriamycin-resistant subline Mam16C/ADR. Human tumor: A single human tumor, mammary carcinoma MX-1 was used for in vivo testing. All tumors are in the Developmental Therapeutics Program frozen tumor respository, maintained by the Biological Testing Branch, Frederick Maryland. Each has a detailed description, code identification number, and list of references at the National Tumor Repository. Murine tumors were maintained in the mouse strain of origin and were transplanted in the appropriate F1 hydrid (or the strain of origin) for therapy trials. […]
(§3) Quantitative end points used to assess antitumor activity included % Increased Life Span (% ILS), Tumor Cell Kill (Log10 kill), and Tumor Growth Inhibition (T/C). […]
(§4) Tumors were measured with a caliper once or twice weekly (as needed) until either tumors exceeded 1600 mg or cure was assured. […] When the control group tumors reached approximately 750-1500 mg in size (median of group), the median tumor weight of each group was determined (including zeros). […] The % T/C was calculated from the following formula for solid murine tumor models: [formula] where T and C are median tumor weights of the treatment and control groups, respectively. […] By convention the T/C value for the mammary carcinoma MX-1 models is calculated by the parameter of change in tumor weight .

[2] = tested on: lung carcinoma No. 12 (LC 12); experiment: In vivo antitumor assay, LC12(sc); details: drug iv, qd 3,5, exp 1161
Description: as §1, §2, §3, §4

[3] = In vivo antitumor assay, P388/ADR(iv); details: mouse, in vivo, iv, drug iv
Description: as §1
(§5) Tumors: Murine Tumor: P388 and an adriamycin-resistant (ADR) subline P388/ADR leukemia and the following transplantable solid tumors of mice were used for in vivo testing: B16 melanoma (B16), pancreatic ductal adenocarcinoma No. 03 (Pane 03), colon adenocarcinoma No. 38 (colo 38), lung carcinoma No. 12 (LC 12), mammary ductal adenocarcinoma No. 16/C (Mam16C) and an adriamycin-resistant subline Mam16C/ADR. Human tumor: A single human tumor, mammary carcinoma MX-1 was used for in vivo testing. All tumors are in the Developmental Therapeutics Program frozen tumor respository, maintained by the Biological Testing Branch, Frederick Maryland. Each has a detailed description, code identification number, and list of references at the National Tumor Repository. Murine tumors were maintained in the mouse strain of origin and were transplanted in the appropriate F1 hydrid (or the strain of origin) for therapy trials. Human mammary carcinoma MX-1 (MX1) was maintained as a subcutaneous implant in either athymic Swiss (Cr: NIH(S)-nu) or athymic random bred (NCR-nu) mice and transplanted in NCR-nu for therapy trials.
(§6) For P388 and P388/ADR leukemia studies the tumor cells were implanted either interperitoneally (IP) or intravenously (IV) on day zero and treatment was started on day one. For B16 melanoma (B16) studies, the tumor cells were implanted IP on day zero and treatment was started on day one. Titered controls were also included to facilitate the calculation of tumor cell kill. For mammary carcinoma MX-1 studies, tumors were implanted with 1) subcutaneously (sc) (14-mg fragment of sc donor tumor) in the axillary region or 2) under the subrenal capsule (SRC) (10×10×10 ocular micrometer unit fragment of sc donor tumor). Treatment started on the day after subrenal capsule tumor implant or when the subcutaneous tumor implant had reached 100-700 mg.
(§7) Quantitative end points used to assess antitumor activity included % Increased Life Span (% ILS), Tumor Cell Kill (Log10 kill), and Tumor Growth Inhibition (T/C). Long Term Survivors (45 or 60 day) were excluded from calculations of %ILS and Tumor Cell Kill.
(§8) Endpoints were calculated as follows: [formula] where Dt is the median day of death for treated and Dc is the median day of death for control groups. A % ILS ≥20 or ≥25 for P388 and B16 intraperitoneal models, respectively, is indicative of a significant degree of antitumor activity. A % ILS ≥75 or ≥50 for P388 and B16 intraperitoneal models, , respectively, is indicative of a high degree of antitumor activity and is the level used by National Cancer Institute to justify further development if other requirements are met (termed DN-2 level activity). Minimum quantitative activity limits for additional P388 models (e.g. P388/ADR and P388, IV) have not been defined. However, the activity limits specified for the intraperitoneal models may be applied as in the majority of instances the intraperitoneal models are found to be signficantly less challenging.
(§9) The log10 cell kill was calculated from the following formula: [formula] where T-C is the tumor difference in the median day of death between the treated (T) and the control (C) groups and Td is the tumor doubling time (in days), the latter estimated from the best fit straight line from a log-linear growth plot of the control-group tumors in exponential growth. The conversion of the T-C values to log10 cell kill is possible because the Td for tumors regrowing post-treatment approximated the Td values of the tumors in untreated control mice.

[4] = tested on: adriamycin-resistant (ADR) subline P388/ADR leukemia; experiment: In vivo antitumor assay, P388/ADR(iv); details: drug iv
Description: as §1, §5, §6, §7, §8, §9

[5] = In vivo antitumor assay, P388(iv); details: mouse, in vivo, drug iv, qd 1-3, exp 1155A
Description: as §1, §2, §3
(§10) Endpoints were calculated as follows: [formula] where Dt is the median day of death for treated and Dc is the median day of death for control groups. […] Minimum quantitative activity limits for additional P388 models (e.g. P388/ADR and P388, IV) have not been defined. […]
as §9, with “The conversion of the T-C values to log10 cell kill is possible because the Td for tumors regrowing post-treatment approximated the Td values of the tumors in untreated control mice.” left out

P388 leukemia = experiment: In vivo antitumor assay, P388(iv); details: drug iv, qd 1-3, exp 1155A
Description: as §1, §2, §3, §10
as §9, with “The conversion of the T-C values to log10 cell kill is possible because the Td for tumors regrowing post-treatment approximated the Td values of the tumors in untreated control mice.” left out

Structure (SMILES): Cc1cc(-c2c(F)cc3c4nn(CCN(C)C)c(=O)c-4cn(C4CC4)c3c2F)cc(C)n1.O=C(O)/C=C/C(=O)O [Example 1, 5-Cyclopropyl-6,8-difluoro-2,5-dihydro-2-[2-(dimethylamino)-ethyl]-7-(2,6-dimethyl-4-pyridinyl)-3H-pyrazolo[4,3-c]quinolin-3-one (E)-2-butendioate (1:1)]
- MTD [1]: > 35 mg/kg
- Log Kill [2]: 0.76
- T/C % [2]: 25%
- MTD ([3]; qd 1-3, exp 1149B): 52 mg/kg
- MTD ([3]; qd 1-5, exp 1073B): 48 mg/kg
- ILS % ([4]; qd 1-3, exp 1149B): 27%
- Log Kill ([4]; qd 1-3, exp 1149B): 1.3
- ILS % ([4]; qd 1-5, exp 1073B): 14.3%
- Log Kill ([4]; qd 1-5, exp 1073B): 0.93
- MTD [5]: 37 mg/kg
- ILS % (P388 leukemia): 82%
- Log Kill (P388 leukemia): 5.4

From US5334595A, “Pyrazoloquinolones as anticancer agents” (priority 1992, dated 1994)
